{"source": "paper PMC9138505", "about": "“Small Molecule 20S Proteasome Enhancer Regulates MYC Protein Stability and Exhibits Antitumor Activity in Multiple Myeloma” (Biomedicines, 2022)", "system": "RPMI-8226 cells", "experiment": "Gene expression profiling, NanoString nCounter PanCancer Pathways Panel, ROSALIND analysis", "assay_type": "cell-based, human", "settings": "RPMI-8226, TCH-165 samples 1-3", "protocol": "RPMI-8226 cells were treated with vehicle or TCH-165 (10 μM) for 4 h. Total RNA was obtained using the mirVana miRNA Isolation Kit, with phenol (Thermofisher Scientific; AM1560; Waltham, MA, USA). Total RNA was quantified by Qubit (Thermofisher Scientific; Q32855; Waltham, MA, USA). and gene expression was evaluated against the nCounter® PanCancer Pathways Panel^TM according to the standard NanoString protocol.\nData were analyzed by ROSALIND® [36] with a hyperscale architecture developed by ROSALIND, Inc. (San Diego, CA, USA). Normalization, fold changes and p-values were calculated using criteria provided by NanoString. ROSALIND follows the nCounter® Advanced Analysis protocol of dividing counts within a lane by the geometric mean of the normalizer probes from the same lane. Housekeeping probes to be used for normalization are selected based on the geNorm algorithm, as implemented in the NormqPCR R library. Fold changes and p-values are calculated using the fast method as described in the nCounter Advanced Analysis 2.0 User Manual. The p-value adjustment is performed using the Benjamini–Hochberg method of estimating false discovery rates (FDR). Clustering of genes for the final heatmap of differentially expressed genes was done using the PAM (Partitioning Around Medoids) method using the fpc R library. Hypergeometric distribution was used to analyze the enrichment of pathways, gene ontology, domain structure and other ontologies. The topGO R library was used to determine local similarities and dependencies between GO terms in order to perform Elim pruning correction. Several database sources were referenced for enrichment analysis, including Interpro [40], NCBI [41], MSigDB [42, 43], REACTOME [44], WikiPathways. Enrichment was calculated relative to a set of background genes relevant to the experiment.", "note": "“And” between values parts separate entries of the source, which are not always exact repeats. Identical values can stand only once."}
{"smiles": "CCOC(=O)[C@]1(c2ccccc2)N=C(c2ccc(OC)cc2)N(Cc2ccccc2)[C@@H]1c1ccc(NCc2ccccc2)cc1", "note": "[TCH-165]", "values": [{"measurement": "ABL1 normalized gene expression", "value": "8.417 and 8.4055 and 8.194"}, {"measurement": "ACVR1B normalized gene expression", "value": "5.827 and 5.592 and 5.805"}, {"measurement": "ACVR2A normalized gene expression", "value": "6.629 and 6.427 and 6.2646"}, {"measurement": "AKT1 normalized gene expression", "value": "9.563 and 9.727 and 9.565"}, {"measurement": "AKT2 normalized gene expression", "value": "9.573 and 9.603 and 9.59"}, {"measurement": "AKT3 normalized gene expression", "value": "5.86 and 5.739 and 5.506"}, {"measurement": "ALK normalized gene expression", "value": "5.044 and 4.427 and 3.805"}, {"measurement": "AMH normalized gene expression", "value": "4.488 and 4.27 and 3.291"}, {"measurement": "ANGPT1 normalized gene expression", "value": "7.445 and 7.284 and 7.245"}, {"measurement": "APC normalized gene expression", "value": "7.784 and 7.6193 and 7.522"}, {"measurement": "AR normalized gene expression", "value": "4.723 and 4.093 and 4.653"}, {"measurement": "ARID1A normalized gene expression", "value": "9.641 and 9.688 and 9.749"}, {"measurement": "ARNT2 normalized gene expression", "value": "5.61 and 5.297 and 5.0068"}, {"measurement": "ATM normalized gene expression", "value": "8.202 and 8.069 and 8.0531"}, {"measurement": "ATR normalized gene expression", "value": "9.3284 and 9.349 and 9.258"}, {"measurement": "ATRX normalized gene expression", "value": "10.3284 and 10.1666 and 10.2009"}, {"measurement": "AXIN1 normalized gene expression", "value": "8.978 and 8.914 and 8.769"}, {"measurement": "AXIN2 normalized gene expression", "value": "4.308 and 4.3768 and 4.39"}, {"measurement": "B2M normalized gene expression", "value": "16.2154 and 16.1625 and 16.1882"}, {"measurement": "BAD normalized gene expression", "value": "9.483 and 9.357 and 9.442"}, {"measurement": "BAIAP3 normalized gene expression", "value": "6.488 and 5.962 and 5.926"}, {"measurement": "BAMBI normalized gene expression", "value": "6.259 and 6.476 and 6.341"}, {"measurement": "BAP1 normalized gene expression", "value": "8.78 and 8.732 and 8.643"}, {"measurement": "BAX normalized gene expression", "value": "9.129 and 9.1412 and 9.225"}, {"measurement": "BCL2A1 normalized gene expression", "value": "5.758 and 5.547 and 5.712"}, {"measurement": "BCL2L1 normalized gene expression", "value": "10.1011 and 10.0891 and 10.0785"}, {"measurement": "BCL2 normalized gene expression", "value": "9.695 and 9.7506 and 9.653"}, {"measurement": "BCOR normalized gene expression", "value": "9.105 and 9.1915 and 9.017"}, {"measurement": "BDNF normalized gene expression", "value": "5.044 and 4.739 and 5.0068"}, {"measurement": "BID normalized gene expression", "value": "7.087 and 7.045 and 6.9095"}, {"measurement": "BIRC3 normalized gene expression", "value": "5.924 and 5.759 and 5.5707"}, {"measurement": "BMP2 normalized gene expression", "value": "5.259 and 4.7789 and 5.156"}, {"measurement": "BMP4 normalized gene expression", "value": "3.86 and 2.891 and 3.0682"}, {"measurement": "BMP5 normalized gene expression", "value": "5.758 and 5.124 and 4.653"}, {"measurement": "BMP6 normalized gene expression", "value": "7.818 and 7.896 and 7.955"}, {"measurement": "BMP7 normalized gene expression", "value": "8.639 and 8.544 and 8.563"}, {"measurement": "BMPR1B normalized gene expression", "value": "5.53 and 5.476 and 5.592"}, {"measurement": "BNIP3 normalized gene expression", "value": "9.175 and 9.079 and 9.173"}, {"measurement": "BRAF normalized gene expression", "value": "8.142 and 7.966 and 8.109"}, {"measurement": "BRCA1 normalized gene expression", "value": "10.3606 and 10.2785 and 10.3058"}, {"measurement": "BRCA2 normalized gene expression", "value": "8.271 and 8.2205 and 8.187"}, {"measurement": "CACNA1C normalized gene expression", "value": "4.649 and 4.029 and 4.291"}, {"measurement": "CACNA1D normalized gene expression", "value": "7.445 and 7.37 and 7.163"}, {"measurement": "CACNA1E normalized gene expression", "value": "5.723 and 5.124 and 4.876"}, {"measurement": "CACNA1G normalized gene expression", "value": "4.649 and 4.093 and 4.483"}, {"measurement": "CACNA1H normalized gene expression", "value": "5.259 and 4.3768 and 4.483"}, {"measurement": "CACNA2D1 normalized gene expression", "value": "4.986 and 5.0613 and 5.2646"}, {"measurement": "CACNB2 normalized gene expression", "value": "4.986 and 4.739 and 4.975"}, {"measurement": "CACNB3 normalized gene expression", "value": "5.308 and 5.154 and 5.592"}, {"measurement": "CACNB4 normalized gene expression", "value": "5.208 and 4.996 and 4.841"}, {"measurement": "CACNG1 normalized gene expression", "value": "4.793 and 4.093 and 4.1271"}, {"measurement": "CACNG4 normalized gene expression", "value": "6.629 and 6.927 and 6.75"}, {"measurement": "CALML3 normalized gene expression", "value": "4.986 and 4.476 and 4.528"}, {"measurement": "CALML5 normalized gene expression", "value": "4.924 and 3.739 and 3.291"}, {"measurement": "CAMK2B normalized gene expression", "value": "5.156 and 4.029 and 4.1271"}, {"measurement": "CAPN2 normalized gene expression", "value": "4.488 and 4.7789 and 4.653"}, {"measurement": "CASP3 normalized gene expression", "value": "9.077 and 9.095 and 9.024"}, {"measurement": "CASP7 normalized gene expression", "value": "7.9 and 7.832 and 7.858"}, {"measurement": "CASP8 normalized gene expression", "value": "10.5065 and 10.4134 and 10.4228"}, {"measurement": "CASP9 normalized gene expression", "value": "7.015 and 7.5638 and 7.592"}, {"measurement": "CASP10 normalized gene expression", "value": "6.044 and 5.524 and 5.316"}, {"measurement": "CBL normalized gene expression", "value": "6.94 and 6.657 and 6.805"}, {"measurement": "CBLC normalized gene expression", "value": "2.723 and 1.891 and 3.0682"}, {"measurement": "CCNA1 normalized gene expression", "value": "5.355 and 4.996 and 4.769"}, {"measurement": "CCNA2 normalized gene expression", "value": "11.2764 and 11.2603 and 11.2666"}, {"measurement": "CCNB1 normalized gene expression", "value": "12.2985 and 12.3229 and 12.3132"}, {"measurement": "CCND1 normalized gene expression", "value": "7.343 and 7.069 and 7.218"}, {"measurement": "CCND2 normalized gene expression", "value": "11.5762 and 11.5571 and 11.5967"}, {"measurement": "CCND3 normalized gene expression", "value": "7.732 and 7.547 and 7.5547"}, {"measurement": "CCNE1 normalized gene expression", "value": "7.001 and 7.297 and 7.31"}, {"measurement": "CCNE2 normalized gene expression", "value": "8.015 and 7.524 and 7.638"}, {"measurement": "CCNO normalized gene expression", "value": "5.156 and 4.093 and 4.0682"}, {"measurement": "CCR7 normalized gene expression", "value": "3.723 and 3.817 and 3.483"}, {"measurement": "CD14 normalized gene expression", "value": "5.53 and 5.402 and 5.437"}, {"measurement": "CD19 normalized gene expression", "value": "4.571 and 4.476 and 4.184"}, {"measurement": "CD40 normalized gene expression", "value": "6.86 and 6.729 and 6.901"}, {"measurement": "CDC6 normalized gene expression", "value": "11.1861 and 11.1846 and 11.1724"}, {"measurement": "CDC7 normalized gene expression", "value": "7.884 and 7.9093 and 7.845"}, {"measurement": "CDC14A normalized gene expression", "value": "6.308 and 6.012 and 6.038"}, {"measurement": "CDC14B normalized gene expression", "value": "5.86 and 5.891 and 6.0224"}, {"measurement": "CDC25A normalized gene expression", "value": "8.686 and 8.482 and 8.39"}, {"measurement": "CDC25B normalized gene expression", "value": "9.593 and 9.697 and 9.611"}, {"measurement": "CDC25C normalized gene expression", "value": "8.406 and 8.5 and 8.492"}, {"measurement": "CDH1 normalized gene expression", "value": "5.355 and 5.891 and 5.673"}, {"measurement": "CDK2 normalized gene expression", "value": "8.944 and 8.829 and 8.792"}, {"measurement": "CDK4 normalized gene expression", "value": "10.4105 and 10.495 and 10.3803"}, {"measurement": "CDK6 normalized gene expression", "value": "9.974 and 9.747 and 9.87"}, {"measurement": "CDKN1A normalized gene expression", "value": "7.714 and 7.882 and 7.792"}, {"measurement": "CDKN1B normalized gene expression", "value": "7.835 and 7.891 and 7.722"}, {"measurement": "CDKN1C normalized gene expression", "value": "7.81 and 7.789 and 7.581"}]}
